Patent publication US20090082456A1, “SOLUBLE EPOXIDE HYDROLASE INHIBITORS” (Arete Therapeutics, Inc., priority 2007, published 2009)

What was measured:
[1] = system: soluble epoxide hydrolase (sEH); test: Fluorescent assay for mouse and human soluble epoxide hydrolase (CMNPC substrate); assay type: biochemical
Description: Recombinant mouse sEH (MsEH) and human sEH (HsEH) were produced in a baculovirus expression system as previously reported. Grant et al., J. Biol. Chem., 268:17628-17633 (1993); Beetham et al., Arch. Biochem. Biophys., 305:197-201 (1993). The expressed proteins were purified from cell lysate by affinity chromatography. Wixtrom et al., Anal. Biochem., 169:71-80 (1988). Protein concentration was quantified using the Pierce BCA assay using bovine serum albumin as the calibrating standard. The preparations were at least 97% pure as judged by SDS-PAGE and scanning densitometry. They contained no detectable esterase or glutathione transferase activity which can interfere with the assay. The assay was also evaluated with similar results in crude cell lysates or homogenate of tissues. The IC50s for each inhibitor were according to the following procedure: Cyano(2-methoxynaphthalen-6-yl)methyl (3-phenyloxiran-2-yl)methyl carbonate (CMNPC; Jones P. D. et. al.; Analytical Biochemistry 2005; 343: pp. 66-75) Bis/Tris HCl 25 mM pH 7.0 containing 0.1 mg/mL of BSA (buffer A) Mother solution of enzyme in buffer A (Mouse sEH at 6 μg/mL and Human sEH at 5 μg/mL). Inhibitor dissolved in DMSO at the appropriate concentration. In a black 96 well plate, fill all the wells with 150 μL of buffer A. Add 2 μL of DMSO in well A2 and A3, and then add 2 μL of inhibitor solution in A1 and A4 through A12. Add 150 μL of buffer A in row A, then mix several time and transfer 150 μL to row B. Repeat this operation up to row H. The 150 μL removed from row H go to the trash. Add 20 μL of buffer A in column 1 and 2, then add 20 μL of enzyme solution to column 3 to 12. Incubate the plate for 5 minutes in the plate reader at 30° C. During incubation prepare the working solution of substrate by mixing 3.68 mL of buffer A (4×0.920 mL) with 266 μL (2×133 μL) of substrate solution). At t=0, add 30 μL of working substrate solution with multi-channel pipette labeled “Briggs 303” and start the reading ([S]final: 5 μM). Read with ex: 330 nm (20 nm) and em: 465 nm (20 nm) every 30 second for 10 minutes. The velocities are used to analyze and calculate the IC50s.

| % Inh ([1]; Conc 200 nM) | melting point | % Inh ([1]; Conc 1000 nM) | % Inh ([1]; Conc 2000 nM) | SMILES |
| --- | --- | --- | --- | --- |
| 98% | 296 to 299 °C | – | – | O=C(Nc1ccc(F)cc1)NC1CCC(NS(=O)(=O)c2cccc(C(F)(F)F)c2)CC1 (stereo not shown) [Compound 3, N-(4-(3-(4-fluorophenyl)ureido)cyclohexyl)-3-(trifluoromethyl)benzenesulfonamide] |
| 93% | – | – | – | CC(=O)NC1CCC(NC(=O)Nc2ccc(C(F)(F)F)cc2)CC1 (stereo not shown) [Compound 4, N-(4-(3-(4-(trifluoromethyl)phenyl)ureido)cyclohexyl)acetamide] |
| 99% | 237 to 239 °C | – | – | CS(=O)(=O)NC1CCC(NC(=O)Nc2ccc(C(F)(F)F)cc2)CC1 (stereo not shown) [Compound 6, N-(4-(3-(4-(trifluoromethyl)phenyl)ureido)cyclohexyl)methanesulfonamide] |

The next lines start with the compound.

| SMILES | % Inh ([1]; Conc 200 nM) | melting point | % Inh ([1]; Conc 1000 nM) | % Inh ([1]; Conc 2000 nM) |
| --- | --- | --- | --- | --- |
| O=C(NC1CCC(NS(=O)(=O)c2cccc(C(F)(F)F)c2)CC1)NC12CC3CC(CC(C3)C1)C2 (stereo not shown) [Compound 1, N-(4-(3-(adamantan-1-yl)ureido)cyclohexyl)-3-(trifluoromethyl)benzenesulfonamide] | 98% | 310 to 312 °C | – | – |
| CC(=O)NC1CCC(NC(=O)NC23CC4CC(CC(C4)C2)C3)CC1 (stereo not shown) [Compound 2, N-(4-(3-(adamantan-1-yl)ureido)cyclohexyl)acetamide] | – | > 300 °C | 98% | – |
| CS(=O)(=O)NC1CCC(NC(=O)NC23CC4CC(CC(C4)C2)C3)CC1 (stereo not shown) [Compound 5, N-(4-(3-(adamantan-1-yl)ureido)cyclohexyl)methanesulfonamide] | 96% | > 300 °C | – | – |
| CS(=O)(=O)NC1CCC(NC(=O)c2ccc(F)cc2)CC1 (stereo not shown) [Compound 7, 4-fluoro-N-(4-(methylsulfonamido)cyclohexyl)benzamide] | – | 269 to 270 °C | – | 44% |
